A short description of data set [1]: Cytotoxicity determination in HepG2.2.15 cells (CCK-8). The class given is cell-based. To be noted: human, 6 days treatment, CCK-8, highest concentration 100 uM. Summed up:
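CC50 derived from CCK-8 absorbance (450 nm, 630 nm reference) after 2.5 h incubation at 37 °C. Before that, HepG2.2.15 cells (5,000/well, 2% FBS) received an 8-point, 3-fold compound series topping at 100 uM for 6 days, with one mid-treatment medium change.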

The next data set concerns HBV. The data set can be described thus: Anti-viral assay in HepG2.2.15 cells: HBV inhibitory activity (HBV DNA in culture medium by q-PCR). The class given is cell-based. An outline of the steps:
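HBV DNA released into the medium was measured by q-PCR after 6-day compound exposure of HepG2.2.15 cells (40,000/well, 2% FBS, one mid-course medium change). Eight 3-fold dilutions, highest 10 uM; EC50 derived by curve fitting.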

Setting [2] is: Hepatitis B virus, HepG2.2.15, 144 h, HepG2.2.15 cells, 6 days treatment, HBV DNA in culture medium by q-PCR, highest concentration 10 uM, read-out: EC50.

Counter-ions that a name gives are not always drawn. Like-named read-outs stand apart in the source and are kept apart here.

The compound `CCOC(=O)C1=C(C2CCN(c3cc(C(F)(F)F)c(C(=O)O)cn3)CC2)NC(c2nccs2)=NC1c1ccc(F)c(F)c1Cl` (single isomer, unassigned) [II-44-B, 6-(4-(6-(2-Chloro-3,4-difluorophenyl)-5-(ethoxycarbonyl)-2-(thiazol-2-yl)-3,6-dihydropyrimidin-4-yl)piperidin-1-yl)-4-(trifluoromethyl)nicotinic Acid] returned a CC50 at 6 days in data set [1] of 4770 nM. Further, the EC50 in the data set with HBV (setting [2]) was 7.6 nM.

In data set [1], `COC(=O)C1=C([C@H]2CC[C@H](c3nc(CC(=O)O)co3)CC2)NC(c2nccs2)=NC1c1cccc(F)c1Cl` (single isomer, unassigned) [Compound I-20-B, (trans)-2-(2-(4-(6-(2-Chloro-3-fluorophenyl)-5-(methoxycarbonyl)-2-(thiazol-2-yl)-3,6-dihydropyrimidin-4-yl)cyclohexyl)oxazol-4-yl)acetic Acid] came in with a CC50 at 6 days of 7210 nM. Moreover, the EC50 in the data set on HBV (setting [2]) is 30 nM.

For the compound `COC(=O)C1=C([C@H]2CC[C@H](c3nc(C(=O)O)co3)CC2)NC(c2nccs2)=NC1c1ccc(F)cc1C` (single isomer, unassigned) [Compound I-6-B, (trans)-2-(4-(6-(4-Fluoro-2-methylphenyl)-5-(methoxycarbonyl)-2-(thiazol-2-yl)-3,6-dihydropyrimidin-4-yl)cyclohexyl)oxazole-4-carboxylic Acid], the CC50 at 6 days in data set [1] is 17400 nM. Moreover, the EC50 with HBV (setting [2]) stood at 72 nM.

Regarding `CCOC(=O)C1=C(C2CCN(c3nc(OC)cc(C(=O)O)n3)CC2)NC(c2nccs2)=NC1c1ccc(F)c(F)c1Cl` (single isomer, unassigned) [II-57-B, 2-(4-(6-(2-chloro-3,4-difluorophenyl)-5-(ethoxycarbonyl)-2-(thiazol-2-yl)-3,6-dihydropyrimidin-4-yl)piperidin-1-yl)-6-methoxypyrimidine-4-carboxylic Acid], it took 4880 nM to reach half-maximal cytotoxicity in data set [1] (CC50 at 6 days). Further, the EC50 with HBV (setting [2]) stood at 100 nM.

In turn, `CCOC(=O)C1=C(C2CC=C(c3nc(C(=O)O)co3)CC2)NC(c2nccs2)=NC1c1ccc(F)c(F)c1Cl` (single isomer, unassigned) [Compound I-13-C, 2-(4-(6-(2-chloro-3,4-difluorophenyl)-5-(ethoxycarbonyl)-2-(thiazol-2-yl)-3,6-dihydropyrimidin-4-yl)cyclohex-1-en-1-yl)oxazole-4-carboxylic Acid] came in with a CC50 at 6 days in data set [1] of 5610 nM. The EC50 with HBV (HepG2.2.15 cells, 6 days treatment, HBV DNA in culture medium by q-PCR, highest concentration 10 uM, read-out: EC50) was 6.5 nM.

Consider `CCOC(=O)C1=C(C2CCN(c3cnc(C(=O)O)s3)CC2)NC(c2nccs2)=NC1c1ccc(F)c(F)c1Cl` (single isomer, unassigned) [II-76-B, 5-(4-(6-(2-Chloro-3,4-difluorophenyl)-5-(ethoxycarbonyl)-2-(thiazol-2-yl)-3,6-dihydropyrimidin-4-yl)piperidin-1-yl)thiazole-2-carboxylate lithium salt], for which the CC50 at 6 days in data set [1] was 6680 nM. This compound yielded an EC50 with HBV (Hepatitis B virus, HepG2.2.15, 144 h) of 90 nM.

The compound `COC(=O)C1=C([C@H]2CC[C@H](c3cnn(CCC(=O)O)c3)CC2)NC(c2nccs2)=NC1c1ccc(F)cc1Cl` (single isomer, unassigned) [Compound I-29-C, (trans)-3-(4-(4-(6-(2-Chloro-4-fluorophenyl)-5-(methoxycarbonyl)-2-(thiazol-2-yl)-3,6-dihydropyrimidin-4-yl)cyclohexyl)-1H-pyrazol-1-yl)propanoic Acid] displayed a CC50 at 6 days in data set [1] of 11200 nM. Moreover, in the data set on HBV (setting [2]), the EC50 turned out to be 10 nM.

`CCOC(=O)C1=C([C@H]2CC[C@H](c3nc(C(C)(C)C(=O)O)co3)CC2)NC(c2nccs2)=NC1c1ccc(F)c(F)c1Cl` (single isomer, unassigned) [Compound I-27-B, (trans)-2-(2-(4-(6-(2-chloro-3,4-difluorophenyl)-5-(ethoxycarbonyl)-2-(thiazol-2-yl)-3,6-dihydropyrimidin-4-yl)cyclohexyl)oxazol-4-yl)-2-methylpropanoic Acid]: in data set [1], the CC50 at 6 days is 5170 nM. For the same compound, the concentration giving a half-maximal response (EC50) with HBV (setting [2]) is 18 nM.

In turn, `COC(=O)C1=C(C2CCN(c3ncc(OC)c(C(=O)O)n3)CC2)NC(c2nccs2)=NC1c1ccc(F)c(F)c1C` (single isomer, unassigned) [II-95-B, 2-(4-(6-(3,4-Difluoro-2-methylphenyl)-5-(methoxycarbonyl)-2-(thiazol-2-yl)-3,6-dihydropyrimidin-4-yl)piperidin-1-yl)-5-methoxypyrimidine-4-carboxylic Acid] showed a CC50 at 6 days in data set [1] of 25800 nM. Further, in the data set with HBV (setting [2]), the EC50 was found to be 8.6 nM.

For the compound `CCOC(=O)C1=C(C2CCN(c3ncc(C(=O)O)cn3)C(C)C2)NC(c2nccs2)=NC1c1ccc(F)c(F)c1Cl` (stereo not shown) [II-34-F, 2-(4-(6-(2-chloro-3,4-difluorophenyl)-5-(ethoxycarbonyl)-2-(thiazol-2-yl)-3,6-dihydropyrimidin-4-yl)-2-methylpiperidin-1-yl)pyrimidine-5-carboxylic acid], it took 7960 nM to reach half-maximal cytotoxicity in data set [1] (CC50 at 6 days). In addition, in the data set with HBV (setting [2]), the EC50 was less than 4.6 nM.

As to `CCOC(=O)C1=C([C@H]2CC[C@H](c3nc(CC(=O)O)co3)CC2)NC(c2nccs2)=NC1c1ccc(F)c(F)c1Cl` (single isomer, unassigned) [Compound I-23-B, (trans)-2-(2-(4-(6-(2-Chloro-3,4-difluorophenyl)-5-(ethoxycarbonyl)-2-(thiazol-2-yl)-3,6-dihydropyrimidin-4-yl)cyclohexyl)oxazol-4-yl)acetic Acid], the CC50 at 6 days in data set [1] was determined as 5480 nM. Besides, the EC50 in the data set on HBV (setting [2]) is 13 nM.

In data set [1], `CCOC(=O)C1=C(C2CCN(c3ncc(CC(=O)O)cn3)CC2)NC(c2nccs2)=NC1c1cccc(F)c1C` (single isomer, unassigned) [II-3-B, 2-(2-(4-(5-(ethoxycarbonyl)-6-(3-fluoro-2-methylphenyl)-2-(thiazol-2-yl)-3,6-dihydropyrimidin-4-yl)piperidin-1-yl)pyrimidin-5-yl)acetic Acid] gave a CC50 at 6 days of 4220 nM. Moreover, the EC50 in the data set on HBV (setting [2]) is less than 4.6 nM.

Regarding `CCOC(=O)C1=C([C@H]2CC[C@H](c3cc(C(=O)O)on3)CC2)NC(c2nccs2)=NC1c1ccc(F)c(F)c1Cl` (single isomer, unassigned) [Compound I-43-B], the CC50 at 6 days in data set [1] came out at 13700 nM. For the same compound, the EC50 in the data set on HBV (setting [2]) turned out to be 29 nM.

In the case of `CCOC(=O)C1=C(C2CCN(c3nccc(C(=O)O)n3)CC2)NC(c2nccs2)=NC1c1ccc(F)c(F)c1Cl` (single isomer, unassigned) [II-65-B, 2-(4-(6-(2-chloro-3,4-difluorophenyl)-5-(ethoxycarbonyl)-2-(thiazol-2-yl)-3,6-dihydropyrimidin-4-yl)piperidin-1-yl)pyrimidine-4-carboxylic Acid], the CC50 at 6 days in data set [1] came out at 6640 nM. Moreover, the EC50 in the data set with HBV (setting [2]) worked out at 4.6 nM.

In data set [1], `CCOC(=O)C1=C(C2CCN(c3ncc([C@]4(O)C[C@@H](C(=O)O)C4)cn3)CC2)NC(c2nccs2)=NC1c1ccc(F)c(F)c1Cl` (single isomer, unassigned) [II-55-B, (trans)-3-(2-(4-(6-(2-Chloro-3,4-difluorophenyl)-5-(ethoxycarbonyl)-2-(thiazol-2-yl)-3,6-dihydropyrimidin-4-yl)piperidin-1-yl)pyrimidin-5-yl)-3-hydroxycyclobutanecarboxylic Acid] showed a CC50 at 6 days of 7960 nM. Also, in the data set on HBV (setting [2]), the EC50 is less than 4.6 nM.

Take `CCOC(=O)C1=C([C@H]2CC[C@H](c3nc(C(=O)O)co3)CC2)NC(c2nccs2)=NC1c1ccc(F)cc1Cl` (single isomer, unassigned) [Compound I-10-C, (trans)-2-(4-(6-(2-Chloro-4-fluorophenyl)-5-(ethoxycarbonyl)-2-(thiazol-2-yl)-3,6-dihydropyrimidin-4-yl)cyclohexyl)oxazole-4-carboxylic Acid]: half-maximal cytotoxicity in data set [1] (CC50 at 6 days) was put at 7640 nM. Also, the EC50 with HBV (setting [2]) was determined as 22 nM.

Take `CCOC(=O)C1=C([C@H]2CC[C@H](c3ccc(C(=O)O)cc3)CC2)NC(c2nccs2)=NC1c1ccc(F)c(F)c1Cl` (single isomer, unassigned) [Compound I-44-A, (trans)-4-(4-(6-(2-Chloro-3,4-difluorophenyl)-5-(ethoxycarbonyl)-2-(thiazol-2-yl)-3,6-dihydropyrimidin-4-yl)cyclohexyl)benzoic Acid]: in data set [1], the CC50 at 6 days turned out to be 1810 nM. Besides, in the data set on HBV (setting [2]), the EC50 worked out at 8.5 nM.

`CCOC(=O)C1=C([C@H]2CC[C@H](n3cc(C(=O)O)cn3)CC2)NC(c2nccs2)=NC1c1ccc(F)c(F)c1Cl` (single isomer, unassigned) [Compound I-38-B, (trans)-1-(4-(6-(2-Chloro-3,4-difluorophenyl)-5-(ethoxycarbonyl)-2-(thiazol-2-yl)-3,6-dihydropyrimidin-4-yl)cyclohexyl)-1H-pyrazole-4-carboxylic Acid] returned a CC50 at 6 days in data set [1] of 11300 nM. Moreover, the EC50 in the data set on HBV (setting [2]) was less than 4.6 nM.

Compound `CCOC(=O)C1=C([C@H]2CC[C@H](c3cnn(CC(C)(C)C(=O)O)c3)CC2)NC(c2nccs2)=NC1c1ccc(F)c(F)c1Cl` (single isomer, unassigned) [Compound I-37-C, (trans)-3-(4-(4-(6-(2-Chloro-3,4-difluorophenyl)-5-(ethoxycarbonyl)-2-(thiazol-2-yl)-3,6-dihydropyrimidin-4-yl)cyclohexyl)-1H-pyrazol-1-yl)-2,2-dimethylpropanoic Acid] came in with a CC50 at 6 days in data set [1] of 2220 nM. Further, the EC50 in the data set on HBV (setting [2]) is 8.3 nM.

For the compound `CCOC(=O)C1=C([C@H]2CC[C@H](c3cc(C(=O)O)nn3C)CC2)NC(c2nccs2)=NC1c1ccc(F)c(F)c1Cl` (single isomer, unassigned) [Compound I-35-C, (trans)-5-(4-(6-(2-chloro-3,4-difluorophenyl)-5-(ethoxycarbonyl)-2-(thiazol-2-yl)-3,6-dihydropyrimidin-4-yl)cyclohexyl)-1-methyl-1H-pyrazole-3-carboxylic Acid], the half-maximal cytotoxic concentration (CC50) at 6 days in data set [1] worked out at 7160 nM. In addition, in the data set on HBV (setting [2]), the EC50 came out at 63 nM.

One may read the CC50 as the concentration at which the toxic effect on the cells reaches its halfway point. High values mean lower toxicity to the cells, low ones greater toxicity to the cells. For orientation: EC50 means the concentration needed to bring the measured effect to its halfway point.

These data come from US11053235B2, “Substituted 1,4-dihydropyrimidines for the treatment of HBV infection or HBV-induced diseases” (Janssen Sciences Ireland Unlimited Company, priority 2018, dated 2021).
